Laboratory results published in patent US20230083012A1, “DIHYDROPYRIMIDINE DERIVATIVES AND USES THEREOF IN THE TREATMENT OF HBV INFECTION OR OF HBV-INDUCED DISEASES” (priority 2019, published 2023).

Experiments:
[1] = tested on: HBV; test: Anti-HBV activity in HepG2.2.15 cells (HBV DNA in culture medium by qPCR); assay type: cell-based; settings: Hepatitis B virus, HepG2.2.15, 144 h, HepG2.2.15 cells, 6 days treatment, HBV DNA in culture medium quantified by real-time PCR; read-out: EC50
Summary of the method: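 Secreted HBV DNA was measured by real-time PCR after 6-day compound exposure of HepG2.2.15 cells (2% FBS, 37 °C, re-dosed after 3 days), giving EC50 from 8-point 1:3 series starting at 10 or 1 uM. Cytotoxicity (CC50) run separately at lower cell density, top 100 uM.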

[2] = Cytotoxicity determination in HepG2.2.15 cells (CCK-8 cell viability); assay type: cell-based; settings: human, 6 days treatment, CCK-8 assay, highest concentration 100 uM
Summary of the method: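 Viability measured by CCK-8 absorbance (450 nm, 630 nm reference, 2.5 h at 37° C) after six days of treatment, medium and compound renewed on day 3. Top concentration 100 uM, eight threefold dilutions in triplicate; cells plated at 5,000/well in 2% FBS medium; CC50 derived.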

| Structure (SMILES) | EC50 [1] [µM] | CC50 at 6 days [2] [µM] |
| --- | --- | --- |
| COC(=O)C1=C(CN2CC(F)(F)[C@@H]3[C@H]2CN(C)N3CCC(C)(C)C(=O)O)NC(c2nccs2)=N[C@H]1c1ccc(F)c(F)c1Cl (single isomer, unassigned) [Compound 95, 4-((cis)-4-((6-(2-Chloro-3,4-difluorophenyl)-5-(methoxycarbonyl)-2-(thiazol-2-yl)-3,6-dihydropyrimidin-4-yl)methyl)-6,6-difluoro-2-methylhexahydropyrrolo[3,2-c]pyrazol-1(2H)-yl)-2,2-dimethylbutanoic acid] | 0.024 | 8.2 |
| CCOC(=O)C1=C(CN2CC(F)(F)[C@@H]3[C@H]2CN(C)N3CCC(C)(C)C(=O)O)NC(c2nccs2)=N[C@@H]1c1ccc(F)nc1C (single isomer, unassigned) [Compound 96] | 0.05 | > 100 |
| CCOC(=O)C1=C(CN2CC(F)(F)[C@@H]3[C@H]2CN(C)N3CC(C)(C)C(=O)O)NC(c2nccs2)=N[C@@H]1c1ccc(F)nc1C (single isomer, unassigned) [Compound 97] | 0.077 | > 100 |
| CCOC(=O)C1=C(CN2CC(F)(F)[C@@H]3[C@H]2CN(C)N3CC2CC(C)(C(=O)O)C2)NC(c2nccs2)=N[C@H]1c1cccc(F)c1C (single isomer, unassigned) [Compound 98] | 0.014 | > 6.2 |
| CCOC(=O)C1=C(CN2CC(F)(F)[C@@H]3[C@H]2CN(C)N3CCOC(C)(C)C(=O)O)NC(c2nccs2)=N[C@H]1c1cccc(F)c1C (single isomer, unassigned) [Compound 99] | 0.155 | 25 |
| [2H]C([2H])([2H])N1C[C@@H]2[C@H](N1CCC(C)(C)C(=O)O)C(F)(F)CN2CC1=C(C(=O)OCC)[C@H](c2cccc(F)c2C)N=C(c2nccs2)N1 (single isomer, unassigned) [Compound 100] | 0.011 | 12 |
| COC(=O)C1=C(CN2CC(F)(F)[C@@H]3[C@H]2CN(C)N3CCC(C)(C)C(=O)O)NC(c2nccs2)=N[C@H]1c1ccc(F)c(F)c1C (single isomer, unassigned) [Compound 101, 4-((cis)-4-((6-(3,4-Difluoro-2-methylphenyl)-5-(methoxycarbonyl)-2-(thiazol-2-yl)-3,6-dihydropyrimidin-4-yl)methyl)-6,6-difluoro-2-methylhexahydropyrrolo[3,2-c]pyrazol-1(2H)-yl)-2,2-dimethylbutanoic acid] | 0.025 | > 3.1 |
| CCOC(=O)C1=C(CN2CC(F)(F)[C@@H]3[C@H]2CN(C)N3CCC(C)(C)C(=O)O)NC(c2nccs2)=N[C@H]1c1cccc(F)c1Cl (single isomer, unassigned) [Compound 102, 4-((cis)-4-((6-(2-chloro-3-fluorophenyl)-5-(ethoxycarbonyl)-2-(thiazol-2-yl)-3,6-dihydropyrimidin-4-yl)methyl)-6,6-difluoro-2-methylhexahydropyrrolo[3,2-c]pyrazol-1(2H)-yl)-2,2-dimethylbutanoic acid] | 0.0135 | 53.8 |
| CCOC(=O)C1=C(CN2CC(F)(F)[C@@H]3NCC[C@@H]32)NC(c2nccs2)=N[C@H]1c1cccc(F)c1C (single isomer, unassigned) [Compound 103] | 0.0543 | 19.8 |
| CCOC(=O)C1=C(CN2CC(F)(F)[C@H]3[C@@H]2CCN3[C@H]2CC[C@@H](C(=O)O)CC2)NC(c2nccs2)=N[C@H]1c1cccc(F)c1C (single isomer, unassigned) [Compound 104A] | 0.0104 | 16.1 |
| CCOC(=O)C1=C(CN2CC(F)(F)[C@H]3[C@@H]2CCN3C2CCC(C(=O)O)CC2)NC(c2nccs2)=N[C@H]1c1cccc(F)c1C (single isomer, unassigned) [Compound 104B] | 0.008 | > 6.2 |
| CCOC(=O)C1=C(CN2CC(F)(F)[C@H]3[C@@H]2CCN3[C@H](C)CC(C)(C)C(=O)O)NC(c2nccs2)=N[C@H]1c1cccc(F)c1C (single isomer, unassigned) [Compound 105A] | 0.0105 | 15.2 |
